Results on one molecule are retold here after patent US12611378B2 (Bausch Health Ireland Limited, priority 2020, dated 2026).

The data set is described as follows: Regional bioavailability of rifaximin, open-label 5-way crossover study in healthy male subjects. It is filed as in vivo, human. The settings on record: based on comparisons of AUC0-24 with AUCact-24, geometric mean. From the text: Blood samples were collected pre-dose and at specified time points after dosing for PK analysis.

In the case of `CO[C@H]1/C=C/O[C@@]2(C)Oc3c(C)c(O)c4c(O)c(c5c(nc6cc(C)ccn65)c4c3C2=O)NC(=O)/C(C)=C\C=C\[C@H](C)[C@H](O)[C@@H](C)[C@@H](O)[C@@H](C)[C@H](OC(C)=O)[C@@H]1C` [Rifaximin, 4-Deoxy-4′-methylpyrido[1′,2′-1,2]imidazo[5,4-c]rifamycin SV], the Frel is, setting by setting: (Regimen B: 150 mg rifaximin SSD delivered to the proximal small bowel) 36.4%; (Regimen C: 150 mg rifaximin SSD delivered to the distal small bowel) 2.09%; (Regimen D: 150 mg rifaximin SSD delivered to the colon) 0.216%; (Regimen E: 150 mg rifaximin SSD delivered to the mid small bowel) 7.08%.
